From patent US8114862B2, “TGR5 modulators and methods of use thereof” (Intercept Pharmaceuticals, Inc., priority 2008, dated 2012)

Experiments:
[1] = molecular target: T1, PPARδ (Homo sapiens, UniProt Q03181); assay: PPARδ coactivator recruitment assay
T1 sequence (Q03181 211-439 limits assumed): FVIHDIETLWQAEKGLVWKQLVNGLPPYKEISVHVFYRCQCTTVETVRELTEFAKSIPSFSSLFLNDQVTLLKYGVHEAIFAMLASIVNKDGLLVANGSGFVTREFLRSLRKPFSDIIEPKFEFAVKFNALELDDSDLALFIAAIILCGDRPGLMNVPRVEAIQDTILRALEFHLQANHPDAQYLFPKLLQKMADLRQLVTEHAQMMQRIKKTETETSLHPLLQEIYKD
Experimental: Lanthascreen assay (Invitrogen) was used for nulear receptor selectivity assay. The kit uses a terbium-labeled anti-GST antibody, a fluorescein-labeled coactivator peptide, and a NR ligand-binding domain that is tagged with glutathione-S-transferase (GST) in a homogenous mix-and-read assay format. […] Following 1 hour incubation in the dark, TR-FRET measurements were made in the Envision. […] The data was analyzed using GraphPad Prism using the sigmoidal curve equation with variable slope to obtain EC50 values.

[2] = test system: intestinal bacteria; assay: Metabolic stability in human stool culture (7α-dehydroxylation); assay type: in vitro ADME
Experimental: Homogenized fresh human stools (500 mg) were transferred into sterile vials to which 5 mL of sterilized chopped meat-glucose medium (Scott Lab., Fiskville, R.I.) was added. BA was then added at a final concentration of 0.05 mM. […] The samples were centrifuged at 3500 rpm for 10 min; from the supernatant the BA were isolated by C-18 solid-phase extraction and analyzed by TLC and HPLC-ES-MS/MS.
Thin-layer chromatography (TLC), utilizing silica gel 0.25 mm thickness plates (Merck, Darmstat, Germany), was employed as the first screening test. The solvent system used for the separation of conjugated BA was composed of propionic acid/isoamyl acetate/water/N-propanol (3:4:1:2, v/v/v/v; solvent I), and that of the unconjugated BA was acetic acid/carbon tetrachloride/isopropyl ether/isoamyl acetate/water/N-propanol/benzene (1:4:6:8:2:2, v/v/v/v/v/v; solvent II).

[3] = test system: Diet-Induced Obesity Mouse Model; assay: Diet-induced obesity mouse model (Example 9); assay type: in vivo
[4] = Bile flow in bile fistula rat after femoral infusion (Example 22); assay type: in vivo
[5] = Critical micellar concentration by surface tension; assay type: physicochemical; details: […] NaCl water solution
Experimental: The critical micellar concentration (CMC) was determined by surface tension (ST) measurements using a maximum bubble-pressure method which give surface tension values […] by potential impurities like static methods are. The tensiometer was a […] Research Corp., Milwaukee, Wis.) equipped with two glass probes of 0.5 and 4.0 mm diameters connected to a source of nitrogen. […] The surface tension values were plotted against the logarithm of the bile salt concentration; the regression lines corresponding to the two parts of the curve (monomeric and micellar phases) were calculated using the method of least squares, and the intersection of the lines was taken as the CMC value. From the ST vs concentration curves the value of the surface tension at the CMC (equilibrium between monomers and multimers species) was also calculated giving information about the detergency power which is related to the size of the micelles with associate surface tension lowering capacity. The CMC was evaluated by surface tension measurements in non equilibrium conditions i.e. in conditions that impurities slightly affect the surface tension results (FIG. 10).

[6] = test system: TGR5+/+ and TGR5-/- mice; assay: OGTT in HF-fed TGR5+/+ and TGR5-/- mice before and after treatment; assay type: in vivo, mouse; details: for body weight after treatment: HF diet, 30 mg/kg/d 4 weeks
Experimental: […]. […] […]; not statistically different). […]; not statistically different).
(§1) Animals were housed and bred according to standardized procedures (Argmann and Auwerx, 2006b). Age-matched male mice were used for all experiments. Genetically engineered mouse models (GEMMs), i.e., TGR5-Tg and TGR5^−/− mice, were generated as described in the Supplemental Data. […]; Research Diets) for at least 8 weeks, as mentioned in the text and figure legends. […] Mouse phenotyping experiments were performed according to EMPRESS protocols (see, for example, Empress (European Mouse Phenotyping Resource of Standardised Screening) website) and were aimed to assess food and water intake, body composition (Argmann et al., 2006a, Curr. Protoc. Mol. Biol. Chapter 29, Unit 29A, 23), energy expenditure (Argmann et al., 2006a, Curr. Protoc. Mol. Biol. Chapter 29, Unit 29A, 23), glucose and lipid homeostasis (Argmann et al., 2006b, Curr. Protoc. Mol. Biol. Chapter 29, Unit 29A, 22); Heikkinen et al., 2007, Curr. Protoc. Mol. Chapter. 29, Unit 29B, 23; Mataki et al., 2007, Mol. Cell. Biol. 27, 8330), and plasma biochemistry (Argmann and Auwerx, 2006a, Curr. Protoc. Mol. Biol. Chapter 29, Unit 29A, 22). Tissues and blood were collected and processed for histopathology, blood chemistry, and gene expression according to standardized procedures (Argmann and Auwerx, 2006a; Feige et al., 2008b; Mark et al., 2007; Watanabe et al., 2006). Hyperinsulinemic euglycemic clamp studies were performed as described (Feige et al., 2008b), with minor modifications including a change in the initial insulin bolus (30 mU/kg) and insulin infusion rate (10 mU/min/kg). Plasma GLP-1 levels were measured by ELISA (Millipore) on blood collected by retro-orbital puncture. […].

[7] = Choleretic effect (bile flow) in bile fistula rat, id and iv infusion; assay type: in vivo; details: for SV0: maximum bile secretion rate: 1 (μmol/min)/kg bw over 1 h
[8] = Biliary secretion and hepatic metabolism in bile fistula rat after femoral infusion (Example 22); assay type: in vivo; details: after iv administration
Experimental: In order to clarify this point the two pure isomers were administered by femoral infusion (i.v.) to a bile fistula rat model at a single dose of 1 μmol/min/kg bw for 1 hour and bile samples were collected for 3 hours. The effect on bile flow, on biliary secretion of the parent compound and of the main metabolite were also evaluated.
Bile samples collected at different times during the iv experiments were analyzed to determine the biliary secretions of the administered isomers and their main metabolites recovered in bile.
When samples were found out of linearity range, they were diluted and reanalyzed.
Rat bile samples were analyzed by HPLC-ESI-MS/MS using the ESI source in negative ionization mode. […] The autosampler was maintained at 7° C. […] Capillary voltage was 3.0 kV.
Calibration samples were obtained in the 0.1-20 μmol/L concentration range prepared in the mobile phase. […] Finally, calibration curves obtained for the free BA were used to estimate taurine conjugated metabolites.

[9] = test system: TGR5+/+ and TGR5-/- mice; assay: Plasma GLP-1 after oral glucose challenge in TGR5+/+ and TGR5-/- mice; assay type: in vivo, mouse; details: for GLP-1 release after a glucose challenge: TGR5+/+ mice
Experimental: as §1
To further establish a role of TGR5 signaling in the maintenance of glucose homeostasis, we assessed the glucose tolerance of germline TGR5-deficient mice (TGR5^−/−), generated by breeding mice in which the TGR5 allele was floxed with CMV-Cre transgenic mice. […].

[10] = test system: NCI-H716 cells; assay: NCI-H716 cell experiments (ATP, intracellular calcium, GLP-1 release); assay type: cell-based, human

CC[C@H]1[C@@H](O)[C@@H]2[C@H](C[C@H](O)[C@]3(C)[C@@H]([C@H](C)C[C@H](C)C(=O)O)CC[C@@H]23)[C@@]2(C)CC[C@@H](O)C[C@@H]12 [Ih3e, 6α-ethyl-(23S)-methyl-3α,7α,12α trihydroxy-5β-cholan-24-oic acid]
PPARδ Activation EC50 [1]: No activity | 7-dehydroxylation and intermediate formation of a 7-oxo derivative [2]: practically abolished | side chain stability to intestinal bacteria enzymatic activities [2]: not modified | compound recovered unmodified ([2]; after 24 hour incubation): more than 85% | compound unmodified ([2]; human, 12 h, 0.05 mM): more than 95% | plasma insulin levels ([3]; after 10 weeks, chow fed and high fat fed mice vs vehicle): increased | glucose levels ([3]; after 12 weeks, high fat fed mice): lower | food/water intake ([3]; high fat diet vs vehicle): slight increase | glucose tolerance ([3]; high fat fed mice): improves glucose tolerance | percentage of change in body, organ and adipose tissue weight compared to chow diet ([3]; high fat fed mice): reduced percentage change | blood glucose ([3]; high fat fed mice vs vehicle): lower | heart rate ([3]; high fat fed mice vs vehicle): lower heart rate | liver enzymes (LDH, ASAT, ALAT) ([3]; high fat fed mice vs vehicle): lower | plasma lipids (total cholesterol, HDL-chol, LDL-chol, triglycerides) ([3]; high fat fed mice vs vehicle): lower | insulin levels after a test meal ([3]; high fat fed mice vs vehicle, at about 12 minutes): peaked to higher levels | body weight gain ([3]; high fat fed mice, 16 weeks, vs vehicle): less weight gain | duration of increased bile flow after the end of the infusion period ([4]; iv infusion): at least 2 hours | bile flow rate ([4]; iv infusion 1 μmol/min/kg for 1 h): significantly increased the bile flow rate | CMC […] Na+ [5]: 1.4 mM | STCMC (surface tension at CMC) [5]: 50.1 Dyne/cm | insulin secretion during oral glucose challenge ([6]; TGR5+/+ fed a HF diet): normalization of insulin secretion | glucose tolerance ([6]; TGR5+/+ fed a HF diet, 4 weeks 30 mkd): significantly improved glucose tolerance | body weight after treatment ([6]; TGR5+/+ mice): 43.50 ± 3.47 g | effects on glucose tolerance and insulin secretion ([6]; TGR5-/- mice): blunted | body weight after treatment ([6]; TGR5-/- mice): 52.30 ± 2.72 g | duration of increased bile flow ([7]; duodenal infusion): at least 3 hours | maximum bile flow rate ([7]; duodenal infusion 1 μmol/kg/min, 1 hour): about 120 μL/min/kg | SV0: maximum bile secretion rate ([7]; id infusion): 112 ± 12 (μL/min)/kg bw | bile flow rate ([7]; iv (femoral) infusion): significantly increased the bile flow rate | SV0: maximum bile secretion rate ([7]; iv infusion): (131 ± 11) (μL/min)/kg bw | biliary secretion [8]: efficient | GLP-1 release after a glucose challenge ([9]; DPP4 inhibitor sitagliptin coadministered): markedly more pronounced | GLP-1 release after a glucose challenge ([9]; preadministration 30 mg/kg oral): moderately increased GLP-1 release | effects on plasma GLP-1 levels ([9]; TGR5-/- mice): blunted | ATP production ([10]; NCI-H716): increased ATP production in a cAMP-dependent manner | calcium influx ([10]; NCI-H716): robustly increased calcium influx | GLP-1 release ([10]; NCI-H716, with glucose): rise in GLP-1 release
